Source: US20250333486A1, “Anti-HSP90 alpha antibody and uses thereof” (NATIONAL HEALTH RESEARCH INSTITUTES, priority 2021, published 2025)

Columns and labels:
[1] = system: PANC-1 plus EndoMT cell grafts; assay: Therapeutic efficacy in desmoplastic humanized mouse PDAC transplant model; format: in vivo; conditions: hHSC-transplanted ASID mice; antibody 5 mg/kg x3, gemcitabine 100 mg/kg x2, IV
PANC-1 cells [2] = assay: Transwell invasion assay, rHSP90α-induced PANC-1 invasion; format: cell-based, human; conditions: 15 μg/ml rHSP90α plus 15 μg/ml peptide
Description: In a 37° C. and 5% CO2 humidified incubator, cancer cells were subjected to serum starvation in 0.5% FBS-containing medium for 16 h, and then added […] After another 24 h, the treated cells were harvested as aliquots (1×10^5 cells per aliquot) in 0.5% FBS-containing culture medium, and then each aliquot was seeded into a top chamber of Transwell inserts pre-coated with 5-fold diluted Matrigel (BD Biosciences). Cells were allowed 16 h to invade through the Matrigel toward the bottom chambers containing culture medium plus 10% FBS. The filters of the Transwell inserts were then fixed and stained with Giemsa. Invasive cells on the lower side of filters were photographed using the Axiovert S100/AxioCam HR microscope system (Carl Zeiss, Oberkochen, Germany) and further quantified by the Image-Pro Plus software (Media Cybernetics, Inc., Silver Spring, MD, USA).

PANC-1 cells [3] = assay: Cell spheroid-forming assay, rHSP90α-induced PANC-1 spheroids; format: cell-based, human; conditions: 15 μg/ml rHSP90α plus 15 μg/ml peptide
Description: One thousand cancer cells were seeded onto each well of 24-well plates pre-coated with a 4-mm thick layer of 0.5% agarose. After incubation 24 h with serum-free medium at 37° C. plus a 5% CO2 humidified atmosphere, cells were added with PBS or 15 μg/ml of rHSP90α in the absence or presence of 10 μg/ml of control IgG or the tested anti-HSP90α antibody. The incubation was kept for 10-14 days with supplements of some fresh serum-free medium every 3 days. Finally, the cell spheroids characterized by tight, non-adherent, and >100 μm in diameter were photographed and counted under an Olympus IX 71 inverted microscope (Center Valley, PA, USA). The spheroid formation % was calculated by the formula: (number of cell spheroids/1000)×100%.

eHSP90α—TLR4 ligation = conditions: Chua et al., Cells 2020; cited from earlier work
[4] = system: ARPE-19 retinal pigmented epithelial cells; assay: Retinal cell toxicity assay (MTS); format: cell-based, human; conditions: 72-h treatment, MTS; read-out: IC50 of cytotoxicity to ARPE-19 cells
Description: ARPE-19 cells were seeded onto 96-well plates at a density of 4000 cells per well, and then treated in triplicate with various concentrations of 17-AAG or anti-HSP90α antibody HH01 for 72 h. The 3-(4,5-dimethylthiazol-2-yl)-5-(3-carboxymethoxyphenyl)-2-(4-sulfophenyl)-2H-tetrazolium (MTS; Sigma-Aldrich) assay was employed and OD490 was measured to evaluate cell viability upon each treatment.

Nc1ccn([C@@H]2O[C@H](CO)[C@@H](O)C2(F)F)c(=O)n1 [gemcitabine]
tumor growth curves [1]: significantly repressed tumors after the second administration of gemcitabine

peptide with a sequence of the a.a. 227-272 region of HSP90α: synthesized epitopes-containing peptide with the sequence of a.a. 227-272 of HSP90α (DKEVSDDEAEEKEDKEEEKEKEEKESEDKPEIEDVGSDEEEEKKDG; UniProt P07900 227-272, looked up, fragment)
rHSP90α-induced PANC-1 cell invasion (PANC-1 cells [2]): competitively suppressed
rHSP90α-induced PANC-1 spheroid formation (PANC-1 cells [3]): competitively suppressed

CCCCCCCCOC(=O)c1cc(O)c(O)c(O)c1 [Octyl gallate]
effect on EndoMT-derived CAFs and eHSP90α-induced macrophage M2-polarization and HSP90α expression (eHSP90α—TLR4 ligation): inhibitory effect

C=CCNC1=C2C[C@@H](C)C[C@H](OC)[C@H](O)[C@@H](C)/C=C(\C)[C@H](OC(N)=O)[C@@H](OC)/C=C\C=C(/C)C(=O)NC(=CC1=O)C2=O [Clone 17-AAG, 17-AAG, reference compound]
IC50 [4]: 64.7 nM
